In patent US20240287138A1, “CYCLIC PEPTIDES FOR INHIBITING TNF RECEPTOR 1 ACTIVITY” (Merck Sharp & Dohme LLC, priority 2023, published 2024):
Numbered stars: 1 amine (or outer) side, 2 acyl side, 3 side chain; on linkers, the order of the positions; unused ones are H or OH. Bridge positions count the residues as written; N and C are the ends. Square brackets hold non-standard residues; d marks the D form. Peptide text beside a SMILES is read from it. Trp(βS-Me,7-OMe) = COc1cccc2c([C@H](C)[C@H](N)C(=O)O)c[nH]c12; X50 = C[C@@H](c1ccc(C(=O)O)cc1)[C@H](N[*:1])C(=O)[*:2]; Phe(4-SO2NH2) = N[C@@H](Cc1ccc(S(N)(=O)=O)cc1)C(=O)O; Phe(2-F,4-COOH) = N[C@@H](Cc1ccc(C(=O)O)cc1F)C(=O)O; Phe(4-CH2COOH) = N[C@@H](Cc1ccc(CC(=O)O)cc1)C(=O)O; Trp(7-CN) = N#Cc1cccc2c(C[C@H](N)C(=O)O)c[nH]c12; Trp(7-Cl) = N[C@@H](Cc1c[nH]c2c(Cl)cccc12)C(=O)O; X43 = O=C(O)[C@H]1CC[C@@H](C(=O)[*:2])N([*:1])C1; Phe(4-CONH2) = NC(=O)c1ccc(C[C@H](N)C(=O)O)cc1; Phe(4-COOH) = N[C@@H](Cc1ccc(C(=O)O)cc1)C(=O)O; Ala(4-Pyridazinyl) = N[C@@H](Cc1ccnnc1)C(=O)O; Trp(7-aza) = N[C@@H](Cc1c[nH]c2ncccc12)C(=O)O; Ala(thiazol-5-yl) = N[C@@H](Cc1cncs1)C(=O)O; 3Pal(6-OMe) = COc1ccc(C[C@H](N)C(=O)O)cn1; Pip(5R-OH) = O=C(O)[C@@H]1CC[C@@H](O)CN1; X1 = O=C([C@@H]1CC[C@H](N[*:1])C1)[*:2]; Pro(4R-NH2) = N[C@H]1CN[C@H](C(=O)O)C1; Pip(4-aza) = O=C(O)[C@@H]1CNCCN1; 4Pal = N[C@@H](Cc1ccncc1)C(=O)O; NMeE = CN[C@@H](CCC(=O)O)C(=O)O; dHyp = O=C(O)[C@H]1C[C@H](O)CN1; dNMeE = CN[C@H](CCC(=O)O)C(=O)O; Cit = NC(=O)NCCC[C@H](N)C(=O)O; hLeu = CC(C)CC[C@H](N)C(=O)O; αMeS = C[C@](N)(CO)C(=O)O; Nle = CCCC[C@H](N)C(=O)O; Sar = CNCC(=O)O

target: T1, TNFα-induced NF-κB signal transduction pathway (TNFR1 signaling) in THP-1 cells (Homo sapiens, UniProt P19438); experiment: THP-1 Lucia NF-κB reporter cell assay, inhibition of TNFα-induced NF-κB signaling; format: cell-based; details: THP-1 NF-κB Lucia reporter cells, 10 ng/mL TNFα, 16-18 h, secreted luciferase; read-out: THP-1 IC50
T1 sequence (P19438 30-455): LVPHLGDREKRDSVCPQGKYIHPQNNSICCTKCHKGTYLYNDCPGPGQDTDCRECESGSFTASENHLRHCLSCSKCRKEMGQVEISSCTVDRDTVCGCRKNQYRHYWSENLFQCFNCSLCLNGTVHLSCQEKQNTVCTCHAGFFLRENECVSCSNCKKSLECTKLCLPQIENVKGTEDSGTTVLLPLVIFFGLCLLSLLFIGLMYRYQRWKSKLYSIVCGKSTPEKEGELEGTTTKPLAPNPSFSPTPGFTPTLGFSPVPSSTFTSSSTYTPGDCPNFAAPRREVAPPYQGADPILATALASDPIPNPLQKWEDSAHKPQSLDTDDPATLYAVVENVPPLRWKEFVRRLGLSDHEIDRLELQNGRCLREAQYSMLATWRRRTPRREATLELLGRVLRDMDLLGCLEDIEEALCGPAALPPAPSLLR
Description: C. Procedure for THP-1 Lucia NF-κB cells
The inhibition of TNFα-induced NF-κB signal transduction pathways was evaluated in THP-1 cells. THP-1 cells harboring NF-κB-inducible Lucia™ reporter gene (InvivoGen, cat. #thp1-nfkb) designed for monitoring NF-κB signal transduction pathway was employed to assess the inhibitory effect macrocyclic peptides on TNFR1 signaling. The cells were cultured in media containing RPMI 1640, 2 mM L-glutamine, 25 mM HEPES, 10% heat-inactivated fetal bovine serum with appropriate selection antibiotics. Assays were performed in media that was devoid of selection antibiotics. For profiling, 125 nL of peptides in DMSO (10 mM) were dispensed into Falcon® 384-well Optilux white/clear flat bottom TC-treated microtest microplate (Corning, cat. #353963) using Echo® 555. […] A suspension of 1 million cells/mL was dispensed at 20 μL/well in a 384-well plate to a density of 20,000 cells/well and pre-incubated with peptides at 37° C. for 1 h. Subsequently, 5 μL of TNF containing media (recombinant human TNFα; R&D Systems USA, cat. #210-TA-005/CF) or TNF-free media (for controls) was added to the wells. The final concentration of TNFα in the assay in 10 ng/mL. After o.n. incubation at 37° C. (16-18 h), 5 μL of supernatant was aspirated and transferred to a 384-well microplate (PerkinElmer, cat. #6007680) for measurement of secreted luciferase activity with 25 μL of QUANTI-Luc™ luminescence assay reagent (InvivoGen, cat. #rep-qlc1) in each well. The luminescence was measured in EnVision® Multimode Plate Reader (PerkinElmer). Dose response curves were analyzed using a 4-parameter logistic model to calculate IC50 values, reported in Table 2, using TIBCO® Spotfire® software employing appropriate Minimum and Maximum controls.

Point of comparison: `CCCC[C@@H]1NC(=O)[C@@H]2CC[C@@H](C2)NC(=O)[C@H]([C@@H](C)c2c[nH]c3c(OC)cccc23)NC(=O)CN(C)C(=O)[C@H](Cc2ccc(O)cc2)NC(=O)[C@H](Cc2ccc(C(=O)O)cc2)NC(=O)[C@](C)(CO)NC(=O)[C@H](Cc2c[nH]c3c(Cl)cccc23)NC(=O)[C@H](Cc2ccc(C(=O)O)cc2F)NC(=O)[C@H](CC(N)=O)NC(=O)[C@H](CCC(=O)O)N(C)C(=O)[C@H](Cc2c[nH]c3ccccc23)NC(=O)[C@@H]2CNCCN2C(=O)[C@H](Cc2ccncc2)NC1=O` [SEQ ID NO. 108] (cyclo([4Pal][Pip(4-aza)]W[NMeE]N[Phe(2-F,4-COOH)][Trp(7-Cl)][αMeS][Phe(4-COOH)]Y[Sar][Trp(βS-Me,7-OMe)][X1][Nle])), IC50 1.2 nM. Against it:
- CCCC[C@@H]1NC(=O)[C@@H]2CC[C@@H](C2)NC(=O)[C@H]([C@@H](C)c2c[nH]c3c(OC)cccc23)NC(=O)CN(C)C(=O)[C@H](Cc2ccc(O)cc2)NC(=O)[C@H](Cc2ccc(C(=O)O)cc2)NC(=O)[C@](C)(CO)NC(=O)[C@H](Cc2c[nH]c3c(Cl)cccc23)NC(=O)[C@H](Cc2ccc(OC)nc2)NC(=O)[C@H](CC(N)=O)NC(=O)[C@H](CCC(=O)O)N(C)C(=O)[C@H](Cc2c[nH]c3ccccc23)NC(=O)[C@@H]2CNCCN2C(=O)[C@H](Cc2ccncc2)NC1=O [SEQ ID NO. 100] (cyclo([4Pal][Pip(4-aza)]W[NMeE]N[3Pal(6-OMe)][Trp(7-Cl)][αMeS][Phe(4-COOH)]Y[Sar][Trp(βS-Me,7-OMe)][X1][Nle])) — within 1.5-fold, 1.3 nM
- CCCC[C@@H]1NC(=O)[C@@H]2CC[C@@H](C2)NC(=O)[C@H]([C@@H](C)c2c[nH]c3c(OC)cccc23)NC(=O)CN(C)C(=O)[C@H](Cc2ccc(C(=O)O)cc2)NC(=O)[C@H](Cc2ccc(C(N)=O)cc2)NC(=O)[C@](C)(CO)NC(=O)[C@H](Cc2c[nH]c3c(Cl)cccc23)NC(=O)[C@H](Cc2ccc(C(=O)O)cc2)NC(=O)[C@H](CC(N)=O)NC(=O)[C@H]2C[C@H](O)CN2C(=O)[C@H](Cc2c[nH]c3ccccc23)NC(=O)[C@@H]2CC[C@@H](O)CN2C(=O)[C@H](Cc2ccnnc2)NC1=O [SEQ ID NO. 105] (cyclo(N[Phe(4-COOH)][Trp(7-Cl)][αMeS][Phe(4-CONH2)][Phe(4-COOH)][Sar][Trp(βS-Me,7-OMe)][X1][Nle][Ala(4-Pyridazinyl)][Pip(5R-OH)]W[dHyp])) — 1.7-fold lower, 0.7 nM
- CCCC[C@@H]1NC(=O)[C@@H]2CC[C@@H](C2)NC(=O)[C@H]([C@@H](C)c2c[nH]c3c(OC)cccc23)NC(=O)CN(C)C(=O)[C@H](Cc2ccc(O)cc2)NC(=O)[C@H](Cc2ccc(CC(=O)O)cc2)NC(=O)[C@](C)(CO)NC(=O)[C@H](Cc2c[nH]c3c(Cl)cccc23)NC(=O)[C@H](Cc2ccncc2)NC(=O)[C@H](CC(N)=O)NC(=O)[C@H](CCC(=O)O)N(C)C(=O)[C@H](Cc2c[nH]c3ccccc23)NC(=O)[C@@H]2CNCCN2C(=O)[C@H](Cc2ccncc2)NC1=O [SEQ ID NO. 111] (cyclo([4Pal][Trp(7-Cl)][αMeS][Phe(4-CH2COOH)]Y[Sar][Trp(βS-Me,7-OMe)][X1][Nle][4Pal][Pip(4-aza)]W[NMeE]N)) — within 1.5-fold, 1.6 nM
- CCCC[C@@H]1NC(=O)[C@@H]2CC[C@@H](C2)NC(=O)[C@H]([C@@H](C)c2c[nH]c3c(OC)cccc23)NC(=O)CN(C)C(=O)[C@H](Cc2ccc(C(N)=O)cc2)NC(=O)[C@H](Cc2ccc(C(N)=O)cc2)NC(=O)[C@](C)(CO)NC(=O)[C@H](Cc2c[nH]c3c(C#N)cccc23)NC(=O)[C@H](Cc2ccc(C(=O)O)cc2)NC(=O)[C@H](CC(N)=O)NC(=O)[C@H]2C[C@H](O)CN2C(=O)[C@H](Cc2c[nH]c3ncccc23)NC(=O)[C@H](CCCNC(N)=O)NC(=O)[C@H]([C@@H](C)c2ccc(C(=O)O)cc2)NC1=O [SEQ ID NO. 118] (cyclo([Cit][Trp(7-aza)][dHyp]N[Phe(4-COOH)][Trp(7-CN)][αMeS][Phe(4-CONH2)][Phe(4-CONH2)][Sar][Trp(βS-Me,7-OMe)][X1][Nle][X50])) — 2.3-fold higher, 2.8 nM
- CCCC[C@@H]1NC(=O)[C@@H]2CC[C@@H](C2)NC(=O)[C@H]([C@@H](C)c2c[nH]c3c(OC)cccc23)NC(=O)CN(C)C(=O)[C@H](Cc2ccc(O)cc2)NC(=O)[C@H](Cc2ccc(C(=O)O)cc2)NC(=O)[C@](C)(CO)NC(=O)[C@H](Cc2c[nH]c3c(Cl)cccc23)NC(=O)[C@H](Cc2ccncc2)NC(=O)[C@H](CC(N)=O)NC(=O)[C@H](CCC(=O)O)N(C)C(=O)[C@H](Cc2c[nH]c3ccccc23)NC(=O)[C@@H]2CC[C@H](C(=O)O)CN2C(=O)[C@H](Cc2ccncc2)NC1=O [SEQ ID NO. 120] (cyclo([4Pal][Trp(7-Cl)][αMeS][Phe(4-COOH)]Y[Sar][Trp(βS-Me,7-OMe)][X1][Nle][4Pal][X43]W[NMeE]N)) — within 1.5-fold, 1.4 nM
- CCCC[C@@H]1NC(=O)CSC[C@@H](C(N)=O)NC(=O)[C@H]([C@@H](C)c2c[nH]c3c(OC)cccc23)NC(=O)CN(C)C(=O)[C@H](Cc2ccc(O)cc2)NC(=O)[C@H](Cc2ccc(C(=O)O)cc2)NC(=O)[C@](C)(CO)NC(=O)[C@H](Cc2c[nH]c3c(Cl)cccc23)NC(=O)[C@H](Cc2ccncc2)NC(=O)[C@H](CC(N)=O)NC(=O)[C@H](CCC(=O)O)N(C)C(=O)[C@H](Cc2c[nH]c3ncccc23)NC(=O)[C@@H]2C[C@@H](N)CN2C(=O)[C@H](Cc2ccncc2)NC1=O [SEQ ID NO. 125] ({CH2CO}-[Nle][4Pal][Pro(4R-NH2)][Trp(7-aza)][NMeE]N[4Pal][Trp(7-Cl)][αMeS][Phe(4-COOH)]Y[Sar][Trp(βS-Me,7-OMe)]C-NH2; thioether N-14) — 3.4-fold higher, 4.1 nM
- CCCC[C@@H]1NC(=O)[C@@H]2CC[C@@H](C2)NC(=O)[C@H]([C@@H](C)c2c[nH]c3c(OC)cccc23)NC(=O)CN(C)C(=O)[C@H](Cc2ccc(C(=O)O)cc2)NC(=O)[C@H](Cc2ccc(C(N)=O)cc2)NC(=O)[C@](C)(CO)NC(=O)[C@H](Cc2c[nH]c3c(C#N)cccc23)NC(=O)[C@H](Cc2ccc(S(N)(=O)=O)cc2)NC(=O)[C@H](CC(N)=O)NC(=O)[C@@H](CCC(=O)O)N(C)C(=O)[C@H](Cc2c[nH]c3ncccc23)NC(=O)[C@@H]2CC[C@@H](O)CN2C(=O)[C@H](Cc2ccncc2)NC1=O [SEQ ID NO. 133] (cyclo([4Pal][Pip(5R-OH)][Trp(7-aza)][dNMeE]N[Phe(4-SO2NH2)][Trp(7-CN)][αMeS][Phe(4-CONH2)][Phe(4-COOH)][Sar][Trp(βS-Me,7-OMe)][X1][Nle])) — within 1.5-fold, 1.4 nM
- COc1cccc2c([C@H](C)[C@@H]3NC(=O)CN(C)C(=O)[C@H](Cc4ccc(O)cc4)NC(=O)[C@H](Cc4ccc(C(=O)O)cc4)NC(=O)[C@](C)(CO)NC(=O)[C@H](Cc4c[nH]c5c(Cl)cccc45)NC(=O)[C@H](Cc4ccncc4)NC(=O)[C@H](CC(N)=O)NC(=O)[C@H](CCC(=O)O)N(C)C(=O)[C@H](Cc4c[nH]c5ccccc45)NC(=O)[C@@H]4CNCCN4C(=O)[C@H](Cc4ccncc4)NC(=O)[C@H](CCC(C)C)NC(=O)[C@@H]4CC[C@@H](C4)NC3=O)c[nH]c12 [SEQ ID NO. 137] (cyclo([4Pal][Trp(7-Cl)][αMeS][Phe(4-COOH)]Y[Sar][Trp(βS-Me,7-OMe)][X1][hLeu][4Pal][Pip(4-aza)]W[NMeE]N)) — within 1.5-fold, 1.3 nM
- CCCC[C@@H]1NC(=O)[C@@H]2CC[C@@H](C2)NC(=O)[C@H]([C@@H](C)c2c[nH]c3c(OC)cccc23)NC(=O)CN(C)C(=O)[C@H](Cc2ccc(O)cc2)NC(=O)[C@H](Cc2ccc(C(=O)O)cc2)NC(=O)[C@](C)(CO)NC(=O)[C@H](Cc2c[nH]c3c(Cl)cccc23)NC(=O)[C@H](Cc2cncs2)NC(=O)[C@H](CC(N)=O)NC(=O)[C@H](CCC(=O)O)N(C)C(=O)[C@H](Cc2c[nH]c3ccccc23)NC(=O)[C@@H]2CNCCN2C(=O)[C@H](Cc2ccncc2)NC1=O [SEQ ID NO. 138] (cyclo([4Pal][Pip(4-aza)]W[NMeE]N[Ala(thiazol-5-yl)][Trp(7-Cl)][αMeS][Phe(4-COOH)]Y[Sar][Trp(βS-Me,7-OMe)][X1][Nle])) — 1.7-fold higher, 2 nM
